The source of these data is PMC6037779, “Repurposing drugs to target the malaria parasite unfolding protein response” (Scientific Reports, 2018).

The target of one experiment is T1, PfGRP78-NBD (Plasmodium falciparum, UniProt Q05866).
T1 construct: His-tag (pET28-MHL, TEV site) (N, cleaved yes); made in house; host or cells: E. coli BL21(DE3)
The experiment can be described thus: DSF thermal shift, PfGRP78-NBD. The format is binding. The following applies: compound 0.5 mM; shifts above or below 1 °C significant. On the procedure: The Plasmodium and human GRP78 NBD differences were further characterized by measuring their interaction with ATP, ADP, and several compounds referenced in the literature as GRP78 inhibitors (Fig. 3a). Initially, their binding was determined using a DSF (Differential Scanning Fluorimetry) assay. In this assay, an interaction between the chaperone and a compound was measured as a change in the protein’s melting temperature (Tm), by subtracting the Tm of the protein by itself to the melting value of the protein in the presence of the compound. Differences above or below 1 °C between the melting temperatures (ΔTm) were considered indicative of a protein-compound interaction. As expected, the Plasmodium GRP78 chaperone interacted with both ATP and ADP. Four of the six compounds tested had significant effects on protein thermal stability (Fig. 3b).
DSF screening was carried out using a CFX96 Touch Real-Time PCR Detection System (BioRad, California). The PfGRP78-FL, PfGRP78-NBD wild type and mutant, and human GRP78-NBD were buffered in 25 mM hepes pH 7.5, 250 mM NaCl and assayed in a 96-well format. […]. The concentration was optimized for each protein to avoid saturation of the fluorescence detector. The GRP78 inhibitors were used at a final concentration of 0.5 mM. SYPRO Orange (Life Technologies, USA) was added as a fluorescence probe in a dilution of 1:1000. The experiments were conducted between 18 °C to 90 °C at a heating rate of 1 °C per minute. The recorded fluorescence reads were fitted to the Boltzmann sigmoid function using DMAN software. The inflection point of each fitted curve is defined as the melting temperature (Tm). The observed temperature shift, ΔTm, was recorded as the difference between Tm of the protein with ligand minus Tm of the protein without ligand. Thermal shifts above or below 1 °C were considered significant.

A further experiment deals with T2, PfGRP78-NBD mut (Y39F) (Plasmodium falciparum, UniProt Q05866, Y39F).
T2 construct: His-tag (pET28-MHL, TEV site) (N, cleaved yes); made in house; host or cells: E. coli BL21(DE3)
T2 sequence (Q05866 26-404 Y39F): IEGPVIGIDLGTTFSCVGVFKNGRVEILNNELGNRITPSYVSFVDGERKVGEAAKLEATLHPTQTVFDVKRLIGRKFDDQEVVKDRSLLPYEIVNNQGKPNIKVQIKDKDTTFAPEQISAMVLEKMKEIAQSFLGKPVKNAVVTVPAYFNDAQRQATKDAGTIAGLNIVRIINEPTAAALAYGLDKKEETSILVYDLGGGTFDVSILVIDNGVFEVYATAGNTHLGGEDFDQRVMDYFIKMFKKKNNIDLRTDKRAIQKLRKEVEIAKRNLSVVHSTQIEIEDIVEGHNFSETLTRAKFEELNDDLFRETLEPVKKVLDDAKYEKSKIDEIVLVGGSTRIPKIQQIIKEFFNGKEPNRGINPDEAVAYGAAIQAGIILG
Briefly: SPR (Biacore) binding to PfGRP78-NBD Y39F mutant. The following applies: ± standard error, 25 °C. On the procedure:
(§1) To quantify the binding affinities of PfGRP78-NBD for the selected compounds, dissociation constants (Kd) were determined by surface plasmon resonance (SPR). […] Purified PfGRP78-FL, PfGRP78-NBD wild-type and mutant, and human GRP78-NBD were immobilized on a CM5 sensorchip using NHS/EDC coupling following the manufacturer protocol to a level of <10,000 RUs, a reference surfaces without immobilized proteins served as a control for nonspecific binding and refractive index changes. Seven different concentrations of the ligands between 0.4 nM to 1 mM, were injected in triplicate over the sensor chip at 30 µL/min in random order. The running buffer was 10 mM HEPES, pH 7.4, 150 mM NaCl, 0.005% P20, 1% DMSO and 2 mM MgCl2. Buffer only injections were used as blanks. The Biacore responses recorded during the 30 seconds of the injection were used to estimate the association constant (kon) and the 300 seconds after the injection were used to estimate the dissociation constant (koff). All dissociation and kinetic constants were estimated using double subtracted sensorgrams[40] using BiaEvaluation Software (GE Healthcare). All the reported parasite dissociation constants (Kd) were estimated with affinity analysis, and all the reported human Kds were calculated from kinetic constants.
(SPR reads the build-up and loss of mass on a sensor chip optically.)

Another experiment concerns the target T3, huGRP78-NBD (Homo sapiens, UniProt P11021).
T3 construct: PfGRP78-NBD wild type and mutant, and human GRP78-NBD were buffered in 25 mM hepes pH 7.5
The experiment can be described thus: SPR (Biacore) binding to human GRP78-NBD. Conditions: ± standard error; calculated from kinetic constants; 25 °C; read-out: affinity constant (Kd) determined by SPR, huGRP78-NBD. On the procedure: as §1, with “Seven different concentrations of the ligands between 0.4 nM to 1 mM, were injected in triplicate over the sensor chip at 30 µL/min in random order.” left out

As usually defined, the Kd is the constant that tells how readily two partners part at equilibrium.

T1 sequence (Q05866 26-404): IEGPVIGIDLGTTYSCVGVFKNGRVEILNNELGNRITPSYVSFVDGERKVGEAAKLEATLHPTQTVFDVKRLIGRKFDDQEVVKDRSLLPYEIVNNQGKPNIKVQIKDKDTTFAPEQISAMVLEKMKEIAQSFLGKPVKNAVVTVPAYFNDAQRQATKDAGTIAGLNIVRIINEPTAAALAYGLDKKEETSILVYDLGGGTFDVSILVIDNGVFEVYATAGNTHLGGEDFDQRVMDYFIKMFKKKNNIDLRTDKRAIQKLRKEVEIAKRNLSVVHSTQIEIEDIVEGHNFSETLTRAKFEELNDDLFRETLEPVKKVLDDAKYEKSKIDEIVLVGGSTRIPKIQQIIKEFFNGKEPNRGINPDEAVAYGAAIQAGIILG
T3 sequence (P11021 26-407 limits assumed): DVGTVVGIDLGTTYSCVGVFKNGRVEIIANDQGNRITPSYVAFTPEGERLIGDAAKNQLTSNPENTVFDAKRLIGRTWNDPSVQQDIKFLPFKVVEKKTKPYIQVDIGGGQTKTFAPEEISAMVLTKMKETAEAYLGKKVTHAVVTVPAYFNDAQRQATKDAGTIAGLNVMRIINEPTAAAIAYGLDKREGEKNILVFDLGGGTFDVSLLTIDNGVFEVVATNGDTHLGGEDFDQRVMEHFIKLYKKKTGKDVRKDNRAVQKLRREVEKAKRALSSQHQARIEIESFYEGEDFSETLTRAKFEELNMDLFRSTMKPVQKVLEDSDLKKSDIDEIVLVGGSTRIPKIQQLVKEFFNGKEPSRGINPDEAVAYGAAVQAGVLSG

In the case of `COc1ccc(-c2nc(-c3cc(C(F)(F)F)cc(C(F)(F)F)c3)n(Cc3ccc(C(N)=O)cc3)c2-c2ccc(OC)cc2)cc1` [Apoptozole], the “DSF effect on thermal stability of PfGRP78-NBD” value on PfGRP78-NBD is reported as “increased the thermal stability”. Moreover, the “affinity constant (Kd) determined by SPR, PfGRP78-NBD mut” value at PfGRP78-NBD mut (Y39F) is “N.B”. The Kd on huGRP78-NBD is 6.9 ± 0.33 µM.
